Source: patent US9012446B2, “Amino-oxazines and amino-dihydrothiazine compounds as beta-secretase modulators and methods of use” (Amgen Inc., priority 2010, dated 2015)
Where two headings read alike, the source gives them in different places.

Columns and labels:
Abeta 40 = experiment: In vivo inhibition of beta-secretase: Abeta 40 reduction in CSF and brain of the rat; settings: after 4 hrs; for inhibition in vivo at 10 mg/kg: 10 mpk
Outline: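 Male Sprague Dawley rats (200 g) were given test compound by oral gavage in 2% HPMC, 1% Tween80, pH 2.2, while a vehicle-only group served as control. After sacrifice, brains were homogenized in 0.2% DEA/50 mM NaCl or 0.5% TritonX-100 in Tris-buffered saline and centrifuged at 355,000 g, 4° C. for 30 minutes. Abeta40 in CSF and brain supernatants was quantified by ECL sandwich ELISA (biotinylated-4G8 capture, Fab40 detection) as percent reduction versus vehicle.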

Aβ40 = experiment: In vitro BACE cell-based assay (Aβ40 sandwich ELISA, cells stably expressing APP); settings: Homo sapiens
Outline: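 Read-out is Aβ40 in cell supernatants, quantified by sandwich ELISA (capture 3 h, detection 2 h, both 4° C) with Delfia time-resolved fluorescence. Cells stably expressing APP were dosed across 10 concentrations from 100 μM or 10 μM top, 0.1% DMSO final; IC50 fitted from percent of control.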

BACE = BACE (Homo sapiens, UniProt P56817); experiment: In vitro enzymatic BACE FRET assay; format: biochemical; settings: average IC50, enzyme assay; read-out: BACE 1 FRET assay
Sequence of BACE (P56817 46-501, species assumed): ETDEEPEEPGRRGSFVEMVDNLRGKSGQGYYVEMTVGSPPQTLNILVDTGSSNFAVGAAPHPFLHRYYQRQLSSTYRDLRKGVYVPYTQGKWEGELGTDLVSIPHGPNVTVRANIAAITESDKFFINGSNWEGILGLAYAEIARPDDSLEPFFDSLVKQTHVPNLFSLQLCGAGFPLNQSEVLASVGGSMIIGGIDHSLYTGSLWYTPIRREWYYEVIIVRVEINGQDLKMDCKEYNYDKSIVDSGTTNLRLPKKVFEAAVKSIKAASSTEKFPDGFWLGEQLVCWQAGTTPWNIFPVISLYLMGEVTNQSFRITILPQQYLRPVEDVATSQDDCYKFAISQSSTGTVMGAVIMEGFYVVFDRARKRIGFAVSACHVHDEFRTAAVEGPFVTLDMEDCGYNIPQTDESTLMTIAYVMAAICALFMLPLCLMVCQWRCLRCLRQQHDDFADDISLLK
Outline: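 Fluorescence […] after Tris quench reports cleavage of a 50 nM quenched peptide substrate over 1 h. Beforehand, 0.2 nM enzyme sits 1 h with inhibitor dilutions. Buffer: 0.05 M acetate pH 4.2, 100 uM genapol, 10% DMSO final.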

[1] = Abeta 40, rat CSF, read-out: % reduction of rat CSF levels at 10 pmk
[2] = Abeta 40, rat brain, read-out: % reduction of rat brain levels at 10 mpk
[3] = HEK293, average IC50, cell assay, HEK cells
[4] = HEK293, average IC50, read-out: HEK cell assay

Row | IC50 (Aβ40; [3]) [nM] | IC50 (BACE) [nM] | IC50 (Aβ40; [4]) [nM] | Compound | inhibition in vivo at 10 mg/kg (Abeta 40; [1]) [%] | inhibition in vivo at 10 mg/kg (Abeta 40; [2]) [%] | % reduction of rat CSF levels (Abeta 40; Abeta 40, rat CSF, at 30 mpk) [% at 30 mpk] | % reduction of rat brain levels (Abeta 40; Abeta 40, rat brain, at 30 mpk) [% at 30 mpk] | % reduction of rat CSF levels (Abeta 40; Abeta 40, rat CSF) [% at 3 mpk] | % reduction of rat brain levels (Abeta 40; Abeta 40, rat brain) [% at 3 mpk]
1 | 0.5 | 0.3 |  | NC1=N[C@@]2(COC1)c1cc(-c3cccnc3)ccc1Oc1c(F)cc(C3=CCCOC3)cc12 [Example 63, (S)-2′-(5,6-dihydro-2H-pyran-3-yl)-4′-fluoro-7′-(pyridin-3-yl)-2,6-dihydrospiro[[1,4]oxazine-3,9′-xanthen]-5-amine] | 19 | 16 |  |  |  | 
2 |  | 35 | 16.1 | NC1=N[C@@]2(CCO1)c1cc(-c3cccnc3)ccc1Oc1c2cc(-c2ccnc(F)c2)nc1F [Example 239, (S)-1-fluoro-3-(2-fluoropyridin-4-yl)-7-(pyridin-3-yl)-5′,6′-dihydrospiro[chromeno[2,3-c]pyridine-5,4′-[1,3]oxazin]-2′-amine] | 68 | 48 |  |  |  | 
3 | 1.3 | 0.2 |  | CC(C)(F)COc1cc(F)c2c(c1)[C@]1(COCC(N)=N1)c1cc(-c3cccnc3F)ccc1O2 [Example 37A, (S)-4′-fluoro-2′-(2-fluoro-2-methylpropoxy)-7′-(2-fluoropyridin-3-yl)-2,6-dihydrospiro[[1,4]oxazine-3,9′-xanthen]-5-amine] | 44 | 39 |  |  |  | 
4 |  | 2.5 | 4.1 | CC(C)(F)COc1cc(F)c2c(c1)[C@]1(CCOC(N)=N1)c1cc(-c3cccnc3F)ccc1O2 [Example 182, (S)-4′-fluoro-2′-(2-fluoro-2-methylpropoxy)-7′-(2-fluoropyridin-3-yl)-5,6-dihydrospiro[[1,3]oxazine-4,9′-xanthen]-2-amine] | 59 | 30 |  |  |  | 
5 |  | 1.4 | 9.7 | NC1=N[C@@]2(CCS1)c1cc(-c3cccnc3F)ccc1Oc1c(F)cc(C3=CCCOC3)cc12 [Example 201, (S)-2′-(5,6-dihydro-2H-pyran-3-yl)-4′-fluoro-7′-(2-fluoropyridin-3-yl)-5,6-dihydrospiro[[1,3]thiazine-4,9′-xanthen]-2-amine] |  |  | 80 | 65 |  | 
6 |  | 2.8 | 2.7 | NC1=N[C@@]2(CCO1)c1cc(-c3cccnc3)ccc1Oc1c(F)cc(C3=CCCOC3)cc12 [Example 164, (S)-2′-(5,6-dihydro-2H-pyran-3-yl)-4′-fluoro-7′-(pyridin-3-yl)-5,6-dihydrospiro[[1,3]oxazine-4,9′-xanthen]-2-amine] | 35 | 12 |  |  |  | 
7 |  | 6.1 | 8.5 | CC(C)(F)COc1cc(F)c2c(c1)[C@]1(CCOC(N)=N1)c1cc(-c3cccnc3)ccc1O2 [Example 176, (S)-4′-fluoro-2′-(2-fluoro-2-methylpropoxy)-7′-(pyridin-3-yl)-5,6-dihydrospiro[[1,3]oxazine-4,9′-xanthen]-2-amine] | 30 | 13 |  |  |  | 
8 | 2.7 | 0.3 |  | NC1=N[C@@]2(COC1)c1cc(-c3cccnc3F)ccc1Oc1cnc(-c3ccc(F)c(F)c3)cc12 [Example 73, (5S)-3-(3,4-difluorophenyl)-7-(2-fluoro-3-pyridinyl)-6′H-spiro[chromeno[2,3-c]pyridine-5,3′-[1,4]oxazin]-5′-amine] | 62 | 42 |  |  |  | 
9 | 1.7 | 0.3 |  | NC1=N[C@@]2(COC1)c1cc(-c3cccnc3F)ccc1Oc1cnc(-c3ccnc(F)c3)cc12 [Example 30, (S)-7-(2-fluoropyridin-3-yl)-3-(2-fluoropyridin-4-yl)-2′,6′-dihydrospiro[chromeno[2,3-c]pyridine-5,3′-[1,4]oxazin]-5′-amine] | 67 | 62 |  |  |  | 
10 | 4 | 5 |  | NC1=N[C@@]2(CCO1)c1cc(-c3cncc(F)c3)ccc1Oc1cnc(-c3ccnc(F)c3)cc12 [Example 145, (S)-7-(5-fluoropyridin-3-yl)-3-(2-fluoropyridin-4-yl)-5′,6′-dihydrospiro[chromeno[2,3-c]pyridine-5,4′-[1,3]oxazin]-2′-amine] | 78 | 59 |  |  |  | 
11 |  | 6 | 8.2 | NC1=N[C@@]2(CCO1)c1cc(-c3cccnc3F)ccc1Oc1c(F)cc(-c3ccncc3)cc12 [Example 166, (S)-4′-fluoro-7′-(2-fluoropyridin-3-yl)-2′-(pyridin-4-yl)-5,6-dihydrospiro[[1,3]oxazine-4,9′-xanthen]-2-amine] | 42 | 25 |  |  |  | 
12 |  | 0.4 | 0.4 | NC1=N[C@@]2(COC1)c1cc(-c3cccnc3F)ccc1Oc1c2cc(C2=CCCOC2)nc1F [Example 249, (S)-3-(5,6-dihydro-2H-pyran-3-yl)-1-fluoro-7-(2-fluoropyridin-3-yl)-2′,6′-dihydrospiro[chromeno[2,3-c]pyridine-5,3′-[1,4]oxazin]-5′-amine] | 72 | 59 |  |  |  | 
13 |  | 2.6 | 6 | NC1=N[C@@]2(CCO1)c1cc(-c3cccnc3F)ccc1Oc1c(F)cc(C3=CCOCC3)cc12 [Example 163, (S)-2′-(3,6-dihydro-2H-pyran-4-yl)-4′-fluoro-7′-(2-fluoropyridin-3-yl)-5,6-dihydrospiro[[1,3]oxazine-4,9′-xanthen]-2-amine] | 52 | 28 |  |  |  | 
14 | 5 | 5.8 |  | CC(C)(C)C#Cc1cc2c(cn1)Oc1ccc(-c3cccnc3F)cc1[C@@]21CCOC(N)=N1 [Example 154, (S)-3-(3,3-dimethylbut-1-ynyl)-7-(2-fluoropyridin-3-yl)-5′,6′-dihydrospiro[chromeno[2,3-c]pyridine-5,4′-[1,3]oxazin]-2′-amine] | 57 | 37 |  |  |  | 
15 | 1.5 | 2.2 |  | NC1=N[C@@]2(CCO1)c1cc(-c3cncc(F)c3)ccc1Oc1cnc(C3=CCCOC3)cc12 [Example 146, (S)-3-(5,6-dihydro-2H-pyran-3-yl)-7-(5-fluoropyridin-3-yl)-5′,6′-dihydrospiro[chromeno[2,3-c]pyridine-5,4′-[1,3]oxazin]-2′-amine] | 75 | 62 |  |  |  | 
16 | 0.4 | 0.7 |  | CC(C)(C)C#Cc1cnc2c(c1)[C@]1(COCC(N)=N1)c1cc(-c3cccnc3F)ccc1O2 [Example 89, (S)-3-(3,3-dimethylbut-1-yn-1-yl)-7-(2-fluoropyridin-3-yl)-2′,6′-dihydrospiro[chromeno[2,3-b]pyridine-5,3′-[1,4]oxazin]-5′-amine] | 50 | 41 |  |  |  | 
17 | 0.7 | 0.6 |  | CC(C)(C)COc1cc2c(cn1)Oc1ccc(-c3cncc(F)c3)cc1[C@@]21COCC(N)=N1 [Example 120, (S)-7-(5-fluoropyridin-3-yl)-3-(neopentyloxy)-2′,6′-dihydrospiro[chromeno[2,3-c]pyridine-5,3′-[1,4]oxazin]-5′-amine] |  |  |  |  | 30 | 24
